Experiment [1] concerns the target Thymidylate synthase (Homo sapiens, UniProt P04818). Kind of experiment: Inhibition of human thymidylate synthase at 10 uM.
The next experiment concerns MOLT-4. In words: Growth inhibition of human MOLT4 cells after 48 hrs by SRB staining method. The following applies: MOLT-4, 48 h; for CC50: read-out: pLC50 (the source's name) (converted); for TGI: read-out: pTGI (converted). Type of experiment: functional. (The SRB assay estimates cell density from bound dye.)
The target of experiment [2] is Thymidylate synthase (Escherichia coli, UniProt C3SWJ7).
For experiment [3], the target named is Thymidylate synthase (Escherichia coli) (UniProt C3SWJ7). Kind of experiment: Inhibition of Escherichia coli thymidylate synthase at 10 uM.

We go through five compounds from ChEMBL document CHEMBL1149774, “Synthesis of N-(5,7-diamino-3-phenyl-quinoxalin-2-yl)-3,4,5-substituted anilines and N-[4[(5,7-diamino-3-phenylquinoxalin-2-yl)amino]benzoyl]-l-glutamic acid diethyl ester: evaluation of in vitro anti-cancer and anti-folate activities” (Eur J Med Chem, 2008).

The GI50 is the concentration at which growth is held to half of that of the control. The low end stands for greater sensitivity of the cells, the high end for lower sensitivity of the cells. In general, Ki refers to the equilibrium dissociation constant of an inhibitor or competing ligand from its target.

The source made the active and inactive calls. The rule behind the calls is not given here.

Thymidylate synthase (Escherichia coli), sequence (C3SWJ7 1-264): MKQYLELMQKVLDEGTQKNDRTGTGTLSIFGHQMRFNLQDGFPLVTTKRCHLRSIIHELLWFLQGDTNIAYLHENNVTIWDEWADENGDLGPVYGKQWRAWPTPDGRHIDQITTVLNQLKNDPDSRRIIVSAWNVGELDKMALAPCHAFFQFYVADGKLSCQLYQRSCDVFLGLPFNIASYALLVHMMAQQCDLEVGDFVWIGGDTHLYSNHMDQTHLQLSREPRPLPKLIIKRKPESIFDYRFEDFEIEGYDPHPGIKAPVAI
Thymidylate synthase (Escherichia coli, UniProt C3SWJ7), sequence (C3SWJ7 whole entry): as the sequence (C3SWJ7 1-264) above
Thymidylate synthase (Homo sapiens, UniProt P04818), sequence (P04818 2-313 limits assumed): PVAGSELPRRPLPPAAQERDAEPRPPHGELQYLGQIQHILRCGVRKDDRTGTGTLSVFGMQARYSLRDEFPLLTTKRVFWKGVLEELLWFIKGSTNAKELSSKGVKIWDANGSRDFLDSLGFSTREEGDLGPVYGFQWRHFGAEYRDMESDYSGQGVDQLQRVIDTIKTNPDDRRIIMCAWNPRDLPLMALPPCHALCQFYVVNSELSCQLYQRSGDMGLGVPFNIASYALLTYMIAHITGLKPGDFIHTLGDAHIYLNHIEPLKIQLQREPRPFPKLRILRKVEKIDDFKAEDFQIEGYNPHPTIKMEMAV

Consider `Nc1cc(N)c2nc(-c3ccccc3)c(Nc3ccc(F)cc3)nc2c1`, for which the outcome at Thymidylate synthase [1] was inactive. In the experiment on MOLT-4, the GI50 was above 100 µM, the CC50 is above 100 µM and the TGI was above 100 µM. Further, the inhibition constant (Ki) at Thymidylate synthase [2] was 70 µM.
Consider `Nc1cc(N)c2nc(-c3ccccc3)c(Nc3ccc(Cl)c(Cl)c3)nc2c1`, for which, in the experiment on MOLT-4, the GI50 was 4.07 µM, the CC50 was above 100 µM and the TGI was above 100 µM. At Thymidylate synthase [2], this compound registered a Ki of 3 µM.
`COc1cc(Nc2nc3cc(N)cc(N)c3nc2-c2ccccc2)cc(OC)c1OC`: in the experiment on MOLT-4, the concentration for 50% growth inhibition (GI50) was 2.57 µM, the CC50 is 56.2 µM and the TGI is 18.2 µM.
Turning to `COc1ccc(Nc2nc3cc(N)cc(N)c3nc2-c2ccccc2)cc1OC`, the outcome on Thymidylate synthase [1] was inactive. Also, in the experiment on MOLT-4, the concentration for 50% growth inhibition (GI50) was 6.92 µM, the CC50 was above 100 µM and the TGI is above 100 µM. Moreover, in experiment [3], the outcome was inactive.
In the case of `CCOC(=O)CCC(NC(=O)c1ccc(Nc2nc3cc(N)cc(N)c3nc2-c2ccccc2)cc1)C(=O)OCC` (stereo unspecified), in the experiment on MOLT-4, it took 2.4 µM to inhibit growth by half (GI50), the CC50 is above 100 µM and the TGI was 7.41 µM. Further, the result in experiment [3] was inactive.
